In paper PMC3071879 (Journal of the American Chemical Society, 2011):

Legend:
Type in all cases: biochemical
PacW = molecular target: T1, PacW (Streptomyces coeruleorubidus, UniProt F5BFC7); assay: ATP-[…]PPi exchange; details: adenylation, DL mixture used
T1 sequence (F5BFC7 1-507): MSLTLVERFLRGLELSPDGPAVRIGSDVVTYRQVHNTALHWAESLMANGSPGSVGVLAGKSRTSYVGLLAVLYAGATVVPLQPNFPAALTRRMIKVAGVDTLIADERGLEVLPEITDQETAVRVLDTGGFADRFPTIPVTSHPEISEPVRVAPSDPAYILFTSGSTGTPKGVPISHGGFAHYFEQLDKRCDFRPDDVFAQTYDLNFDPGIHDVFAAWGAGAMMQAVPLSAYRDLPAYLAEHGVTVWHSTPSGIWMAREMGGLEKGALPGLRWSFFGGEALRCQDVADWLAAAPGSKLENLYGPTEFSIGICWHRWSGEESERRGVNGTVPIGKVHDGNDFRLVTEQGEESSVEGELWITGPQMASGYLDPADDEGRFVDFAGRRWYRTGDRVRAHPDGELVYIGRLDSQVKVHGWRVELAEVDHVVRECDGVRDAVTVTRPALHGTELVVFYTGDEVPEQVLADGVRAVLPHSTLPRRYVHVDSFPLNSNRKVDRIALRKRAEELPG

PacP = molecular target: T2, PacP (Streptomyces coeruleorubidus, UniProt E2EKP8); assay: ATP-[…]PPi exchange; details: adenylation
T2 sequence (E2EKP8 1-848): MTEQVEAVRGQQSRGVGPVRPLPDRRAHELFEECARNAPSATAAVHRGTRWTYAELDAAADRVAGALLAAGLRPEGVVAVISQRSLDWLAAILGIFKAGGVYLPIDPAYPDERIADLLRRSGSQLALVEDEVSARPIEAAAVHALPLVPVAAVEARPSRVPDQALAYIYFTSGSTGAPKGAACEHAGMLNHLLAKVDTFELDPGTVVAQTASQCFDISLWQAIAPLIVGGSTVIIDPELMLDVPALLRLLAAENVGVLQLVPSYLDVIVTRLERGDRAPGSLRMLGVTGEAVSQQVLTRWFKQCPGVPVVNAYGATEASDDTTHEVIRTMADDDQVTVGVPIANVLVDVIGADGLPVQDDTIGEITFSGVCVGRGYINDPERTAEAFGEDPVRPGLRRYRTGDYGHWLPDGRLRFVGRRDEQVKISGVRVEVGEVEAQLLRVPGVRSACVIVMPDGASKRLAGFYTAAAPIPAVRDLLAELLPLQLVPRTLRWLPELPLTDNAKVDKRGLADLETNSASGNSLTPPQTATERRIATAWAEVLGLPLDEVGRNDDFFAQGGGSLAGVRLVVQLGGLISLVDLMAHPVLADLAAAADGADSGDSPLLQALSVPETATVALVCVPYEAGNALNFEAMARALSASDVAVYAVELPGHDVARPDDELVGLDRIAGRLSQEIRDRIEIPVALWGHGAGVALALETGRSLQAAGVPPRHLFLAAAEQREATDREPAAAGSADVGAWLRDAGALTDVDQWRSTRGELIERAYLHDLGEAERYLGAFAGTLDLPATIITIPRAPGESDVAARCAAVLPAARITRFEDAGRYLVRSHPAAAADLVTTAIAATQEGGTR

PacU = molecular target: T3, PacU (Streptomyces coeruleorubidus, UniProt E2EKQ3); assay: ATP-[…]PPi exchange; details: adenylation
T3 sequence (E2EKQ3 1-507): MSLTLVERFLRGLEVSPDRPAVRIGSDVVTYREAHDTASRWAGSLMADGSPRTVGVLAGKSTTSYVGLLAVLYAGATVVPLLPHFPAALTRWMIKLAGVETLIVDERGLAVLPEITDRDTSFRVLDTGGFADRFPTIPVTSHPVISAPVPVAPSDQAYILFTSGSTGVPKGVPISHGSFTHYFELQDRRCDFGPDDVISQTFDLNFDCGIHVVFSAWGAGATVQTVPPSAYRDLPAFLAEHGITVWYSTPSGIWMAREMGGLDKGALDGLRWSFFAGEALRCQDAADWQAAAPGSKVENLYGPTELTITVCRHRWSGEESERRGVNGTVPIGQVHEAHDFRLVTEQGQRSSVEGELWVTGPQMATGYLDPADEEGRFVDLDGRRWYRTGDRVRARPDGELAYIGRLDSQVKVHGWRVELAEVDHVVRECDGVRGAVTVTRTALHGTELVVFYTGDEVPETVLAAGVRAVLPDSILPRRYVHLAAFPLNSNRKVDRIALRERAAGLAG

PacV = PacV (Streptomyces coeruleorubidus, UniProt E2EKQ4); assay: SDS-PAGE autoradiography of […]-methyl transfer; details: methyl acceptor DABA tethered to holo-PacP; labelled compound
Sequence of PacV (E2EKQ4 1-250): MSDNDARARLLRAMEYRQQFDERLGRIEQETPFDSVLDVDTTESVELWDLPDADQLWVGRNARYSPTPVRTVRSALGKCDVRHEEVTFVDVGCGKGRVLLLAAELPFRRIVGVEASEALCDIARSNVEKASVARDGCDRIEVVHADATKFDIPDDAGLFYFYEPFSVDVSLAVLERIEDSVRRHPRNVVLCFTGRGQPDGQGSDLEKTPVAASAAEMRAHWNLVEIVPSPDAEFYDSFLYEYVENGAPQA

`NC(Cc1cccc(O)c1)C(=O)O` (racemic) [m-Tyr] was tested. Which “ATP-[32P]PPi exchange” value (PacW) did it give?
The value was “demonstrated a strong preference for the activation of m-Tyr over other aromatic amino acids”.

`C[C@H](N)[C@H](N)C(=O)O` [2S,3S-DABA] was tested. Which “ATP-[32P]PPi exchange” value (PacP) did it give?
The value was “PacP exhibited a preference toward reversible formation of 2S,3S-DABA-AMP”.

With `C[C@H](N)C(=O)O` [L-Ala] as the compound, how does the “ATP-[32P]PPi exchange” value (PacU) read?
The value was “exhibited a strong preference toward reversible formation of L-Ala-AMP”.

For `C[S+](CC[C@H](N)C(=O)O)C[C@H]1O[C@@H](n2cnc3c(N)ncnc32)[C@H](O)[C@@H]1O` (stereo partly shown) [S-adenosylmethionine], which “SDS-PAGE autoradiography of 14C-methyl transfer” value (PacV) is on record?
The value was “PacV indeed transferred the methyl group from S-adenosylmethionine (SAM) to holo-PacP”.
